Data as given in patent US8436005B2, “Macrocyclic pyrimidine derivatives” (Abbott Laboratories, priority 2008, dated 2013).

Tested on: carrageenan-induced thermal hyperalgesia
Assay: Acute model of carrageenan-induced thermal hyperalgesia (hotbox assay)
Assay type: in vivo
Conditions: 100 micromole/kg intraperitoneally, 90 minutes after carrageenan, tested 30 minutes after dosing
Experimental: To assess the effectiveness of representative compounds of the invention against acute model inflammatory pain, animals can be tested in an acute model of carrageenan-induced thermal hyperalgesia (see for example, Honore, et al. Behavioural Brain Research (2006) vol. 167 pp. 355-364; Porreca, et al. Journal of Pharmacology and Experimental Therapeutics (2006) vol. 318 pp. 195-205). Carrageenan is injected into the test paw of the animal, and after 90 minutes, the test drug is administered by intraperitoneal dosing; the effect on thermal hyperalgesia is assessed in a hotbox assay which is done 30 minutes after the intraperitoneal dosing of the test drug. The MPE (maximal percent effect) is reported by comparison to the control paw (not injected with carrageenan), MPE being expressed as 100 times the withdrawal latency of the carrageenan injected paw (in seconds) divided by the withdrawal latency of the control (not injected with carrageenan) paw.

Compound | MPE (maximal percent effect), withdrawal latency of carrageenan injected paw vs control paw [%]
Nc1nc2c(c(N3C[C@H]4CCCN[C@H]4C3)n1)CCCCC2c1ccccc1 (stereo partly drawn) [Example 21, 9-phenyl-4-((4aR,7aR)-tetrahydro-1H-pyrrolo[3,4-b]pyridin-6(2H,7H,7aH)-yl)-6,7,8,9-tetrahydro-5H-cyclohepta[d]pyrimidin-2-amine] | 24
Nc1nc2c(c(N3CCNCC3)n1)CCCCC2c1ccccc1 (centres unmarked) [Example 19, 9-phenyl-4-(piperazin-1-yl)-6,7,8,9-tetrahydro-5H-cyclohepta[d]pyrimidin-2-amine] | 26
